Measured values published in patent US20240390338A1, “METHODS FOR TREATING NEUROGENERATIVE DISEASES” (PTC THERAPEUTICS, INC., priority 2021, published 2024).

The compounds below were run on MAPT 3R mRNA (assay: RT-qPCR Assay to Quantify MAPT 3R mRNA in Cells). Conditions: cells incubated with compound 24 h; 7-point concentration curve; MAPT minigene 3R RT-qPCR with GAPDH assay; EC2X interpolated from dose response curve.
Format: cell-based
Experimental: RT-qPCR Assay to Quantify MAPT 3R mRNA in Cells
Test compounds were serially diluted 3.16-fold in 100% DMSO to generate a 7-point concentration curve. Aliquots of 0.5 μL of diluted compounds were transferred to a 96-well flat bottom plate by a liquid handler. An aliquot of 0.5 μL DMSO was also transferred to separate wells and used as controls. Duplicate samples were set up for each compound concentration and for the DMSO control.
Cells were thawed and incubated in cell culture media (DMEM, 10% FBS, and 1% antibiotic cocktail) for 72 h. Cells were trypsinized, counted, and re-suspended to a concentration of 200,000 cells/mL in cell culture media. A 100 μL aliquot of the cell suspensions were plated at 20,000 cells per well in the compound containing 96 well microtiter plate and incubated for in a cell culture incubator (37° C., 5% CO2, 100% relative humidity).
After 24 h, media was aspirated from the cells and 20 μL of the RCL2 lysis buffer (10 mM Tris-HCL pH 7.4, 150 mM NaCl, 0.33% IGEPAL® CA-630) was added to each well and incubated at RT for 1 min. Chilled nuclease free water (140 μL per well) was added and the plates were immediately transferred on ice. After 1 min on ice, plates were frozen at −80° C. overnight.
Preparation of RT-qPCR Reaction Mixture:
An aliquot of 4 μL/well of the cell lysates was transferred using the liquid handler to the Armadillo 384-Well PCR plate containing 6 μL/well of the RT-qPCR reaction mixture that was prepared as detailed above. The plates were then sealed with MicroAmp™ Optical Adhesive Film followed by spinning down for 1 min and placed in the CFX384 thermocycler (BioRad).
The RT-qPCR was carried out at the following temperatures for the indicated time: • Step 1: 48° C. (30 min) • Step 2: 95° C. (10 min) • Step 3: 95° C. (15 sec) • Step 4: 60° C. (1 min); then, repeated Steps 3 and 4 for a total of 40 cycles.
The percent exon 4 skipping was calculated for each dose of compound treatment using Equations 1 and 2.
Data were fit to a dose response curve and the EC2X was interpolated using XLfit® statistical and curve fitting package.
An EC2X value between >1000 nM and ≤1500 nM is indicated by two stars (**). An EC2X value between >500 nM and ≤1000 nM is indicated by three stars (***). An EC2X value between >50 nM and ≤500 nM is indicated by four stars (****). An EC2X value ≤50 nM is indicated by five stars (*****).

`Cc1c(C[C@@H](N)CS(C)(=O)=O)sc2c(NCc3ccco3)cc(Cl)nc12` [Cpd 108, 2-[(2R)-2-amino-3-(methanesulfonyl)propyl]-5-chloro-N-[(furan-2-yl)methyl]-3-methylthieno[3,2-b]pyridin-7-amine] and `CS(=O)(=O)C[C@H](N)Cc1sc2c(NCc3ccco3)cc(Cl)nc2c1Br` [Cpd 117, 2-[(2R)-2-amino-3-(methanesulfonyl)propyl]-3-bromo-5-chloro-N-[(furan-2-yl)methyl]thieno[3,2-b]pyridin-7-amine] fall in the same range of EC (2-fold increase): 0.05 to 0.5 µM for the first, 0.05 to 0.5 µM for the second.

`N[C@@H](CCF)Cc1sc2c(NCc3cccs3)cc(Cl)nc2c1Br` [Cpd 74, 2-[(2S)-2-amino-4-fluorobutyl]-3-bromo-5-chloro-N-[(thiophen-2-yl)methyl]thieno[3,2-b]pyridin-7-amine] and `N[C@@H](CF)Cc1sc2c(NCc3cccs3)cc(Cl)nc2c1Br` [Cpd 76, 2-[(2R)-2-amino-3-fluoropropyl]-3-bromo-5-chloro-N-[(thiophen-2-yl)methyl]thieno[3,2-b]pyridin-7-amine] cannot be ordered by EC (2-fold increase): ≤ 0.05 µM for the first, ≤ 0.05 µM for the second.

`C[C@H](N)C(F)c1sc2c(NCc3cccs3)cc(Cl)nc2c1Br` (stereo partly drawn) [Cpd 158, 2-[(2S)-2-amino-1-fluoropropyl]-3-bromo-5-chloro-N-[(thiophen-2-yl)methyl]thieno[3,2-b]pyridin-7-amine] and `C[C@H](N)Cc1sc2c(NCc3cccs3)cc(Cl)nc2c1Br` [Cpd 53, 2-[(2S)-2-aminopropyl]-3-bromo-5-chloro-N-[(thiophen-2-yl)methyl]thieno[3,2-b]pyridin-7-amine] cannot be ordered by EC (2-fold increase): ≤ 0.05 µM for the first, ≤ 0.05 µM for the second.

`N[C@H](Cc1sc2c(NCc3ccco3)cc(Cl)nc2c1Cl)C(=O)Nc1ccccc1F` [Cpd 120, 3-(3,5-dichloro-7-{[(furan-2-yl)methyl]amino}thieno[3,2-b]pyridin-2-yl)-N-(2-fluorophenyl)-D-alaninamide] and `N[C@@H](CO)Cc1sc2c(NCc3ccco3)cc(Cl)nc2c1Cl` [Cpd 39, (2R)-2-amino-3-(3,5-dichloro-7-{[(furan-2-yl)methyl]amino}thieno[3,2-b]pyridin-2-yl)propan-1-ol] fall in the same range of EC (2-fold increase): 0.05 to 0.5 µM for the first, 0.05 to 0.5 µM for the second.

`Cc1c(C[C@@H](N)CC(C)C)sc2c(NCc3cccs3)cc(Cl)nc12` [Cpd 61, 2-[(2S)-2-amino-4-methylpentyl]-5-chloro-3-methyl-N-[(thiophen-2-yl)methyl]thieno[3,2-b]pyridin-7-amine] and `Cc1c(C[C@@H](N)CF)sc2c(NCc3cccs3)cc(Cl)nc12` [Cpd 91, 2-[(2R)-2-amino-3-fluoropropyl]-5-chloro-3-methyl-N-[(thiophen-2-yl)methyl]thieno[3,2-b]pyridin-7-amine] cannot be ordered by EC (2-fold increase): ≤ 0.05 µM for the first, ≤ 0.05 µM for the second.

`COC[C@H](N)Cc1sc2c(NCc3ccco3)cc(Cl)nc2c1C` [Cpd 45, 2-[(2R)-2-amino-3-methoxypropyl]-5-chloro-N-[(furan-2-yl)methyl]-3-methylthieno[3,2-b]pyridin-7-amine] and `COC[C@H](N)Cc1sc2c(NCc3ccco3)cc(Cl)nc2c1Br` [Cpd 44, 2-[(2R)-2-amino-3-methoxypropyl]-3-bromo-5-chloro-N-[(furan-2-yl)methyl]thieno[3,2-b]pyridin-7-amine] cannot be ordered by EC (2-fold increase): ≤ 0.05 µM for the first, ≤ 0.05 µM for the second.

`Cc1c(C[C@@H](N)CC#N)sc2c(NCc3cccs3)cc(Cl)nc12` [Cpd 105, (3S)-3-amino-4-(5-chloro-3-methyl-7-{[(thiophen-2-yl)methyl]amino}thieno[3,2-b]pyridin-2-yl)butanenitrile] and `N#CC[C@H](N)Cc1sc2c(NCc3cccs3)cc(Cl)nc2c1Cl` [Cpd 106, (3S)-3-amino-4-(3,5-dichloro-7-{[(thiophen-2-yl)methyl]amino}thieno[3,2-b]pyridin-2-yl)butanenitrile] fall in the same range of EC (2-fold increase): 0.05 to 0.5 µM for the first, 0.05 to 0.5 µM for the second.

`C#C[C@H](N)Cc1sc2c(NCc3ccco3)cc(Cl)nc2c1C` [Cpd 123, 2-[(2R)-2-aminobut-3-yn-1-yl]-3-methyl-5-chloro-N-[(furan-2-yl)methyl]thieno[3,2-b]pyridin-7-amine] and `C#C[C@H](N)Cc1sc2c(NCc3ccco3)cc(Cl)nc2c1Cl` [Cpd 166, 2-[(2R)-2-aminobut-3-yn-1-yl]-3,5-dichloro-N-[(furan-2-yl)methyl]thieno[3,2-b]pyridin-7-amine] cannot be ordered by EC (2-fold increase): ≤ 0.05 µM for the first, 0.05 to 0.5 µM for the second.

`Cc1c(C[C@@H](N)CCF)sc2c(NCc3cccs3)cc(Cl)nc12` [Cpd 92, 2-[(2S)-2-amino-4-fluorobutyl]-5-chloro-3-methyl-N-[(thiophen-2-yl)methyl]thieno[3,2-b]pyridin-7-amine] and `Cc1c(C[C@@H](N)CCF)sc2c(NCc3ccco3)cc(Cl)nc12` [Cpd 95, 2-[(2S)-2-amino-4-fluorobutyl]-5-chloro-N-[(furan-2-yl)methyl]-3-methylthieno[3,2-b]pyridin-7-amine] cannot be ordered by EC (2-fold increase): 0.05 to 0.5 µM for the first, ≤ 0.05 µM for the second.

`Cc1c(C[C@H](C)N)sc2c(NCc3ccco3)ccnc12` [Cpd 34, 2-[(2S)-2-aminopropyl]-N-[(furan-2-yl)methyl]-3-methylthieno[3,2-b]pyridin-7-amine] and `Cc1c(C[C@H](C)N)sc2c(NCc3ccco3)cc(Cl)nc12` [Cpd 18, 2-[(2S)-2-aminopropyl]-5-chloro-N-[(furan-2-yl)methyl]-3-methylthieno[3,2-b]pyridin-7-amine] cannot be ordered by EC (2-fold increase): 0.05 to 0.5 µM for the first, ≤ 0.05 µM for the second.

`C[C@H](N)Cc1sc2c(NCc3ccco3)cc(Cl)nc2c1C#N` [Cpd 109, 2-[(2S)-2-aminopropyl]-5-chloro-7-{[(furan-2-yl)methyl]amino}thieno[3,2-b]pyridine-3-carbonitrile] and `Cc1c(C[C@@H](N)CO)sc2c(NCc3ccco3)cc(Cl)nc12` [Cpd 58, (2R)-2-amino-3-(5-chloro-7-{[(furan-2-yl)methyl]amino}-3-methylthieno[3,2-b]pyridin-2-yl)propan-1-ol] cannot be ordered by EC (2-fold increase): ≤ 0.05 µM for the first, ≤ 0.05 µM for the second.

`Cc1c(C[C@@H](N)C(=O)Nc2cnccn2)sc2c(NCc3ccco3)cc(Cl)nc12` [Cpd 135, 3-(5-chloro-7-{[(furan-2-yl)methyl]amino}-3-methylthieno[3,2-b]pyridin-2-yl)-N-pyrazin-2-yl-D-alaninamide] and `CSC[C@H](N)Cc1sc2c(NCc3ccco3)cc(Cl)nc2c1C` [Cpd 104, 2-[(2R)-2-amino-3-(methylsulfanyl)propyl]-5-chloro-N-[(furan-2-yl)methyl]-3-methylthieno[3,2-b]pyridin-7-amine] cannot be ordered by EC (2-fold increase): 0.05 to 0.5 µM for the first, ≤ 0.05 µM for the second.

Compared with `C[C@H](N)Cc1cc2nc(Cl)cc(NCc3ccco3)c2s1` [Cpd 16, 2-[(2S)-2-aminopropyl]-5-chloro-N-[(furan-2-yl)methyl]thieno[3,2-b]pyridin-7-amine], `N[C@@H](CO)Cc1cc2nc(Cl)cc(NCc3ccco3)c2s1` [Cpd 17, (2R)-2-amino-3-(5-chloro-7-{[(furan-2-yl)methyl]amino}thieno[3,2-b]pyridin-2-yl)propan-1-ol] is higher in EC (2-fold increase): 0.05 to 0.5 µM for the first, 1 to 1.5 µM for the second.

`C[C@H](N)Cc1sc2c(NCc3cccs3)cc(Cl)nc2c1Cl` [Cpd 52, 2-[(2S)-2-aminopropyl]-3,5-dichloro-N-[(thiophen-2-yl)methyl]thieno[3,2-b]pyridin-7-amine] and `CS(=O)(=O)C[C@H](N)Cc1sc2c(NCc3ccco3)cc(Cl)nc2c1Cl` [Cpd 113, 2-[(2R)-2-amino-3-(methanesulfonyl)propyl]-3,5-dichloro-N-[(furan-2-yl)methyl]thieno[3,2-b]pyridin-7-amine] cannot be ordered by EC (2-fold increase): ≤ 0.05 µM for the first, 0.05 to 0.5 µM for the second.

For `C[C@H](F)[C@H](N)Cc1sc2c(NCc3nccs3)cc(Cl)nc2c1Br` [Cpd 125, 2-[(2R,3S)-2-amino-3-fluorobutyl]-3-bromo-5-chloro-N-[(1,3-thiazol-2-yl)methyl]thieno[3,2-b]pyridin-7-amine], the EC (2-fold increase) was ≤ 0.05 µM.
